Laboratory results as given in US7446210B2, “Factor Xa compounds” (Janssen Pharmaceutica N.V., priority 2004, dated 2008).
Structures can show the parent of a compound that is named as a salt. Where two headings read alike, the source gives them in different places.

Key:
human α-thrombin = biological target: T1, human α-thrombin (Homo sapiens, UniProt P00734); assay: In vitro inhibition of purified enzymes, Ki determination: thrombin (hydrolysis of N-succinyl-Ala-Ala-Pro-Arg-p-nitroanilide); format: biochemical; details: substrate N-succinyl-Ala-Ala-Pro-Arg-p-nitroanilide, 37° C., pH 7.5
T1 construct: Purified human a-thrombin was diluted into assay buffer; purchased Enzyme Research Laboratories (South Bend, Ind.)
From the text: (§1) Reagents: All buffer salts were obtained from Sigma Chemical Company (St. Louis, Mo.), and were of the highest purity available. The enzyme substrate, S-2765 (Z-D-Arg-Gly-Arg-p-nitroanilide) was obtained from DiaPharma (West Chester, Ohio). N-succinyl-Ala-Ala-Pro-Arg-p-nitroanilide (BACHEM L-1720) was obtained from BACHEM (King of Prussia, Pa.). N-p-Tosyl-Gly-Pro-Lys-p-nitroanilide (Sigma T6140), N-succinyl-Ala-Ala-Pro-Phe-p-nitroanilide (Sigma S7388), N-CBZ-Val-Gly-Arg-p-nitroanilide (Sigma C7271) was obtained from Sigma and N-succinyl-Ala-Ala-Pro-Val-p-nitroanilide (BACHEM L-1770) was obtained from BACHEM (King of Prussia, Pa.).
(§2) Human α-thrombin and human Factor Xa were obtained from Enzyme Research Laboratories (South Bend, Ind.). Human trypsin was obtained from Calbiochem (La Jolla, Calif.). Human plasmin was obtained from Enzyme Research Laboratories (South Bend, Ind.). Bovine a-chymotrypsin (Sigma C4129) and human kidney cell urokinase (Sigma U5004) was obtained from Sigma. Human leukocyte elastase was obtained from Elastin Products (Pacific, Mo.).
(§3) Ki Determinations: All assays are based on the ability of the test compound to inhibit the enzyme-catalyzed hydrolysis of a peptide p-nitroanilide substrate. In a typical Ki determination, substrate is prepared in DMSO, and diluted into an assay buffer consisting of 50 mM HEPES, pH 7.5, 200 mM NaCl, 0.05% n-octyl b-d-glucopyranoside. The final concentrations for each of the substrates are listed below. In general, substrate concentrations are lower than the experimentally determined value for Km. Test compounds are prepared as 10 mM solutions in DMSO. Dilutions are prepared in DMSO yielding 7 final concentrations encompassing a 200-fold concentration range. Enzyme solutions are prepared at the concentrations listed below in assay buffer.
(§4) Reactions were initiated by the addition of a […] aliquot of enzyme and the absorbance increase at 405 nm is recorded for 15 minutes. Data corresponding to less than 10% of the total substrate hydrolysis were used in the calculations. The ratio of the velocity (rate of change in absorbance as a function of time) for a sample containing no test compound is divided by the velocity of a sample containing test compound, and is plotted as a function of test compound concentration. The data are fit to a linear regression, and the value of the slope of the line calculated. The inverse of the slope is the experimentally determined apparent Ki value (Ki app). The Ki is calculated from the Ki app using the Ki factor specific for the assay, where Ki=Ki app×Ki factor, or Ki=Ki app×(1/ (1+[S]/Km)).
Thrombin: Thrombin activity was assessed as the ability to hydrolyze the substrate N-succinyl-Ala-Ala-Pro-Arg-p-nitroanilide (Km=320 mM, Ki factor=0.76). Substrate solutions were prepared at a concentration of 107 mM in assay buffer. Final DMSO concentration was 4.3%. Purified human a-thrombin was diluted into assay buffer to a concentration of 33 nM. Final reagent concentrations were: [thrombin]=1.1 nM, [substrate N-succinyl-Ala-Ala-Pro-Arg-p-nitroanilide]=100 mM.

Factor Xa [1] = biological target: T2, Factor Xa (Homo sapiens, UniProt P00742); assay: In vitro inhibition of purified enzymes, Ki determination: Factor Xa (hydrolysis of S-2765); format: biochemical; set-up: purchased Enzyme Research Laboratories (South Bend, Ind.); details: purified activated human Factor X, substrate S-2765, 37° C., pH 7.5; read-out: KI FXa
From the text: as §1, §2, §3, §4
Substrate solutions were prepared at a concentration of 107 mM in assay buffer. Final DMSO concentration was 3.3%. Purified activated human Factor X was diluted into assay buffer to a concentration of 16 nM. Final reagent concentrations were: [Factor Xa]=0.53 nM, [S-2765]=100 mM.

human trypsin = biological target: T3, human trypsin; assay: In vitro inhibition of purified enzymes, Ki determination: trypsin (hydrolysis of S-2765); format: biochemical; details: substrate S-2765, 37° C., pH 7.5
T3 construct: Purified human trypsin was diluted into assay buffer to a concentration of 10 nM
From the text: as §1, §2, §3, §4
Trypsin: Trypsin activity was assessed as the ability to hydrolyze the substrate S-2765 (Z-D-Arg-Gly-Arg-p-nitroanilide, Km=61 mM, Ki factor=0.50). Substrate solutions were prepared at a concentration of 64 mM in assay buffer. Final DMSO concentration was 3.3%. Purified human trypsin was diluted into assay buffer to a concentration of 10 nM. Final reagent concentrations were: [Trypsin]=0.33 nM, [S-2765]=60 mM.

Factor Xa [2] = biological target: T2, Factor Xa; details: background statement; cited from earlier work

T2 sequence (P00742 235-488 limits assumed): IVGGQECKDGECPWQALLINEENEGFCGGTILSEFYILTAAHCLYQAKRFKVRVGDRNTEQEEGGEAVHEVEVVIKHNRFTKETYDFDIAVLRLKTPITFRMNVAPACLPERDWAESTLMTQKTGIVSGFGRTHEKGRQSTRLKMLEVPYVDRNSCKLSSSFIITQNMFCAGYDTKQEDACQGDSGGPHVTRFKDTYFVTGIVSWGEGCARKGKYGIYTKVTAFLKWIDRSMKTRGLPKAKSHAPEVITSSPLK
T2 sequence (P00742 41-179 partner limits assumed): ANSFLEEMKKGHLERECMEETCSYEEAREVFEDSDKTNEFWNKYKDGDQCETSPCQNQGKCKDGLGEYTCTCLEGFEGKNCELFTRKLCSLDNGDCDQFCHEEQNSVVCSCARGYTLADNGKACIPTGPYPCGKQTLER

Ki (human α-thrombin) | Ki (Factor Xa [1]) | Ki (human trypsin) | Compound | Ki (Factor Xa [2])
> 15.2 µM | 340 nM | > 10000 nM | O=C1CCCCN1c1ccc(-c2ccc3c(C(F)(F)F)nn(-c4cccc(Cl)c4)c3c2F)c(F)c1 [Example 95, 1-{4-[1-(3-Chloro-phenyl)-7-fluoro-3-trifluoromethyl-1H-indazol-6-yl]-3-fluoro-phenyl}-piperidin-2-one] | 
 | 660 nM |  | COc1cccc(-n2nc(C)c3ccc(-c4ccc(N5CCCCC5=O)cc4)c(F)c32)c1 [Example 4, 1-{4-[7-fluoro-1-(3methoxy-phenyl)-3-methyl-1H-indazol-6-yl]-phenyl}-piperidin-2-one] | 
 |  |  | tick anticoagulant peptide (YNRLCIKPRDWIDECDSNEGGERAYFRNGKGGCDSFWICPEDHTGADYYSSYRDCFNACI; UniProt P17726 1-60, looked up) [TAP] | ~0.5 nM
> 15.2 µM | 5 nM | > 10000 nM | CN(C)CCCN(c1ccncc1)c1ccc(-c2ccc3c(C(N)=O)nn(-c4ccc5onc(N)c5c4)c3c2F)c(F)c1 [Example 59, 1-(3-Amino-benzo[d]isoxazol-5-yl)-6-{4-[(3-dimethylamino-propyl)-pyridin-4-yl-amino]-2-fluoro-phenyl}-7-fluoro-1H-indazole-3-carboxamide dimesylate salt] | 
> 15.2 µM | 2 nM | > 10000 nM | CN(C)Cc1cnccc1-c1ccc(-c2ccc3c(C(N)=O)nn(-c4ccc5onc(N)c5c4)c3c2F)c(F)c1 [Example 66, 1-(3-Amino-benzo[d]isoxazol-5-yl)-6-[4-(3-dimethylaminomethyl-pyridin-4-yl)-2-fluoro-phenyl]-7-fluoro-1H-indazole-3-carboxylic acid amide] | 
> 15.2 µM | 40 nM | > 10000 nM | Cc1nn(-c2ccc3onc(N)c3c2)c2c(F)c(-c3ccc(-n4ccccc4=O)cc3F)ccc12 [Example 25, 1-{4-[1-(3-Amino-benzo[a]isoxazol-5-yl)-7-fluoro-3-methyl-1H-indazol-6-yl]-3-fluoro-phenyl}-1H-pyridin-2-one] | 
> 15.2 µM | 46 nM | > 10000 nM | Cc1nn(-c2ccc3ccnc(N)c3c2)c2c(F)c(-c3ccc(-c4ccccc4S(C)(=O)=O)cc3F)ccc12 [Example 93, 7-[7-Fluoro-6-(3-fluoro-2′-methanesulfonyl-biphenyl-4-yl)-3-methyl-indazol-1-yl]-isoquinolin-1-ylamine] | 
> 15.2 µM | 2820 nM | 1590 nM | Cc1nn(-c2cccc(CN)c2)c2c(F)c(-c3ccc(C#Cc4ccc5nc(N)sc5c4)cc3)ccc12 [Example 15, 6{4-1-(3-Aminomethyl-phenyl)-7-fluoro-3-methyl-1H-indazol]-phenylethynyl-benzothiazol-2-ylamine] | 
> 15.2 µM | 120 nM | > 10000 nM | Cc1nn(-c2cccc(CN)c2)c2c(F)c(-c3ccc(N4CCCCC4=O)cc3)ccc12 [Example 6, 1-{4-[1-(3-Aminomethyl-phenyl)7-fluoro-1-3-methyl-1H-indazol-6-yl]-phenyl}-piperidin-2-one] | 
> 15.2 µM | 220 nM | 700 nM | Cc1nn(-c2cccc(CN)c2)c2c(F)c(-c3ccc(N4CCCC4=O)cc3)ccc12 [Example 7, 1-{4-[1-(3-Aminomethyl-phenyl)-7-fluoro-1-3-methyl-1H-indazol-6-yl]-phenyl}-pyrolidin-2-one] | 
> 15.2 µM | 45 nM | 1500 nM | Cc1nn(-c2cccc(CN)c2)c2c(F)c(-c3ccc(-c4ccccc4S(C)(=O)=O)cc3F)ccc12 [Example 82, 3-[7-Fluoro-6-(3-fluoro-2′-methanesulfonyl-biphenyl-4-yl)-3-methyl-indazol-1-yl]-benzylamine] | 
> 15.2 µM | 48 nM | > 10000 nM | Cc1nn(-c2ccc3onc(N)c3c2)c2c(F)c(-c3ccc(N4CCCCC4=O)cc3)ccc12 [Example 86, 1-{4-[1-(3-Amino-benzo[d]isoxazol-5-yl)-7-fluoro-3-methyl-1H-indazol-6-yl]-phenyl}-piperidin-2-one] | 
 |  |  | antistasin [ATS] | 0.05 nM
> 15.2 µM | 6 nM | > 10000 nM | NC(=O)c1nn(-c2ccc3onc(N)c3c2)c2c(F)c(-c3ccc(N4CCOCC4=O)cn3)ccc12 [Example 43, 1-(3-Amino-benzo[d]isoxazol-5-yl)-7-fluoro-6-[5-(3-oxo-morpholin-4-yl)-pyridin-2-yl]-1H-indazole-3-carboxylic acid amide; methanesulfonic acid salt] | 
1.6 µM | 1 nM | 140 nM | Cc1nn(-c2cccc(C(=N)N)c2)c2c(F)c(-c3ccc(N4CCCCC4=O)cc3F)ccc12 [Example 75, 3-{7-Fluoro-6-[2-fluoro-4-(2-oxo-piperidin-1-yl)-phenyl]-3-methyl-indazol-1-yl}-benzamidine] | 
> 15.2 µM | 33 nM | 2900 nM | Cc1nn(-c2cccc(CN)c2)c2c(F)c(-c3ccc(N(C)c4ccncc4)cc3F)ccc12 [Example 35] | 
